Laboratory results taken from ChEMBL document CHEMBL1201862, “PubChem BioAssay data set” (2004).
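Protocol summary: plate cells (96-well), add compound at 5 concentrations, incubate 48 h, interpolate endpoints linearly. Here, GI50 denotes the concentration required for 50% inhibition of growth.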 Calls of active or inactive are those of the source. Cut-off read from the data, not from the text of the source: active = GI50 up to about 1.1 µM and inactive = higher.

What was measured:
Test in all cases: growth of human tumour cells (NCI), 48 h
SK-MEL-2 = tested on: SK-MEL-2
Hs-578T = tested on: Hs-578T
EKVX = tested on: EKVX
HCT-15 = tested on: HCT-15
KM12 = tested on: KM12
CAKI-1 = tested on: CAKI-1
SNB-19 = tested on: SNB-19
K562 = tested on: K562
SN12C = tested on: SN12C
OVCAR-5 = tested on: OVCAR-5
DU-145 = tested on: DU-145
NCI-H23 = tested on: NCI-H23
SK-MEL-5 = tested on: SK-MEL-5
NCI-H226 = tested on: NCI-H226
T47D = tested on: T47D
UACC-62 = tested on: UACC-62
MDA-MB-231 = tested on: MDA-MB-231
SK-OV-3 = tested on: SK-OV-3
CCRF-CEM = tested on: CCRF-CEM

Compound	GI50 (SK-MEL-2)	GI50 (Hs-578T)	GI50 (EKVX)	GI50 (HCT-15) [µM]	GI50 (KM12)	GI50 (CAKI-1)	GI50 (SNB-19)	GI50 (K562)	GI50 (SN12C)	GI50 (OVCAR-5)	GI50 (DU-145)	GI50 (NCI-H23)	GI50 (SK-MEL-5)	GI50 (NCI-H226)	GI50 (T47D)	GI50 (UACC-62)	GI50 (MDA-MB-231)	GI50 (SK-OV-3)	GI50 (CCRF-CEM)
Nc1ccccc1SC(C[N+](=O)[O-])c1ccc2c(c1)OCO2 (stereo unspecified)	14.6 µM (inactive)	5.64 µM (inactive)	3.89 µM (inactive)	3.01	2.44 µM (inactive)	13.7 µM (inactive)	12 µM (inactive)	1.63 µM (inactive)	3.37 µM (inactive)	3.65 µM (inactive)	2.62 µM (inactive)	3.08 µM (inactive)	3.26 µM (inactive)	11.2 µM (inactive)	4.18 µM (inactive)	13.2 µM (inactive)	7.1 µM (inactive)	4.54 µM (inactive)	–
O=C1c2ccc3ccccc3c2CCC1N1CCCCC1 (stereo unspecified)	19.6 µM (inactive)	20.3 µM (inactive)	22.4 µM (inactive)	20.2	17.7 µM (inactive)	16 µM (inactive)	19.7 µM (inactive)	17.6 µM (inactive)	15.6 µM (inactive)	19.7 µM (inactive)	16.7 µM (inactive)	19.7 µM (inactive)	17 µM (inactive)	15.8 µM (inactive)	21.2 µM (inactive)	16.7 µM (inactive)	16.9 µM (inactive)	22 µM (inactive)	–
CCCC(=O)OC(OC(=O)CCC)c1ccc([N+](=O)[O-])o1	22.8 µM (inactive)	35.5 µM (inactive)	26.1 µM (inactive)	15.7	37.6 µM (inactive)	17.7 µM (inactive)	> 100 µM (inactive)	34 µM (inactive)	17.3 µM (inactive)	21.8 µM (inactive)	36.7 µM (inactive)	22.1 µM (inactive)	32.4 µM (inactive)	–	21.4 µM (inactive)	20.9 µM (inactive)	27.5 µM (inactive)	> 100 µM (inactive)	28.2 µM (inactive)
C=CC(=O)N1C/C(=C\c2ccc(N(C)C)cc2)C(=O)/C(=C/c2ccc(N(C)C)cc2)C1	> 100 µM (inactive)	30 µM (inactive)	> 100 µM (inactive)	18.2	8.67 µM (inactive)	> 100 µM (inactive)	> 100 µM (inactive)	8.97 µM (inactive)	> 100 µM (inactive)	> 100 µM (inactive)	> 100 µM (inactive)	> 100 µM (inactive)	> 100 µM (inactive)	> 100 µM (inactive)	> 100 µM (inactive)	44.3 µM (inactive)	> 100 µM (inactive)	–	–
O=C1CC(c2ccc([N+](=O)[O-])cc2)C2(C(=O)NC(=S)NC2=O)C(c2ccc([N+](=O)[O-])cc2)C1 (stereo unspecified)	–	25.8 µM (inactive)	32.7 µM (inactive)	18.9	18.5 µM (inactive)	–	17.5 µM (inactive)	62.5 µM (inactive)	21.5 µM (inactive)	35.5 µM (inactive)	31.8 µM (inactive)	22.1 µM (inactive)	31.3 µM (inactive)	15.7 µM (inactive)	51.3 µM (inactive)	14.8 µM (inactive)	13.6 µM (inactive)	35.9 µM (inactive)	27.7 µM (inactive)
O=c1c(=O)c2cscc2c1=O	4.92 µM (inactive)	9.75 µM (inactive)	5.11 µM (inactive)	5.78	5.15 µM (inactive)	4.4 µM (inactive)	6.56 µM (inactive)	0.0955 µM (active)	5.87 µM (inactive)	4.74 µM (inactive)	5.33 µM (inactive)	5.61 µM (inactive)	4.42 µM (inactive)	5.55 µM (inactive)	3.66 µM (inactive)	4.73 µM (inactive)	5.14 µM (inactive)	> 25 µM (inactive)	–
